Experimental data as given in publication PMC7006908 (PLoS ONE, 2020).
Values joined by “and” are separate entries in the source; they are usually repeats but may differ in a detail not shown here. Equal values may be shown once. Read-outs that look alike come from different tables or passages of the source.

Assays:
[1] = LC-MS/MS quantification of Cmin in plasma samples from breast cancer patients (clinical study CRO-2018-83); format: in vivo, human; details: for concentration at 30 h / concentration at 25 h / concentration at 1 week / concentration at 15 h: human, plasma, oral; for concentration at 30 h: patient 8, sample 10, RIBO 600 mg/day + LETRO 2.5 mg/day; for concentration at 25 h / concentration at 1 week: 125 mg/day; for concentration at 25 h: patient 2, sample 3, PALBO 125 mg/day; for concentration at 1 week: patient 3, sample 4, PALBO 125 mg/day; for concentration at 15 h: patient 7, sample 9, PALBO 125 mg/day
Procedure: Preparation of calibration curve and QCs samples was conducted through the following steps: 1) 5 μL of working solutions were added to 95 μL of blank human plasma (dilution 1:20) and vortexed for 10 s; 2) a 10 μL-aliquot of this mix was added with 80 μL of cold IS working solution (see “Standard solutions preparation” section), vortexed and then centrifuged for 15 min at 16200 g and 4°C; 3) 70 μL of the supernatant were transferred to a polypropylene tube for the following analysis. […] The preparation of patients’ samples was conducted as following: patient plasma was thawed at room temperature, vortexed for 10 s and centrifuged, for 10 min, at 3000 g and 4°C; 10 μL of plasma was then treated according to steps 2) and 3).
The HPLC system was a SIL-20AC XR auto-sampler and LC-20AD UFLC XR pumps (Shimadzu, Tokyo, Japan). The mobile phases (MP) consisted of ultrapure water with 0.1% HCOOH (phase A) and methanol/isopropanol (9:1, v/v) with 0.1% HCOOH (phase B). The chromatographic separation was obtained on the Luna Omega Polar C18 column ([…], 100 Å, 50 x 2.1 mm) coupled with a Security Guard Cartridge (Polar, C18, 4 x 2.0 mm), both provided by Phenomenex (Castel Maggiore (BO), Italy). The mass spectrometry system used for the detection was an API 4000 triple quadrupole (AB SCIEX, Massachusetts, USA) with a TurboIonSpray source operating in positive ion mode. To optimize source and compound dependent parameters, solutions of each analyte at the concentration of 100 ng/mL were used with a flow rate of 20 μL/min. Data were processed with Analyst 1.6.3 and the quantification of the peaks was done with MultiQuant 2.1 (software package AB SCIEX).
The exclusion criteria were to be non-collaborative and/or unreliable patients and refusal of informed consent. Patients were asked to periodically (every two months) collect plasma samples for the estimation of PALBO or RIBO and/or LETRO Cmin during their therapy treatment.
Plasma was obtained immediately by centrifugation of the blood samples at 3000 g for 10 min at 4°C. Then the obtained plasma was split into two independent aliquots and stored at -80°C in two different freezers.
At present, each of the 10 patients’ samples collected were quantified in 2 separate runs during 2 different working days, to further assess the reproducibility of the proposed method. In fact, as recently introduced in the last version of the FDA guideline, incurred samples re-analysis (ISR) is necessary to show the reliability of the reported analyte concentrations obtained with a bioanalytical method. ISR is conducted by repeating the analysis of a subset of patients’ samples in separate runs. The two analyses can be considered equivalent if the percentage difference [expressed as: (repeat-original)*100/mean] between the first and the second concentration measured is within ±20% for at least 67% of the samples [23, 24].

[2] = Bench-top stability in human plasma, 4 h at room temperature; format: in vitro ADME
Procedure: (§1) Stability tests were conducted using QCs prepared in triplicate at each concentration (L, M, H): bench-top stability was investigated after 4 h at room temperature; stability of the deproteinized QCs was evaluated in autosampler set at 4 °C re-analysing the samples 24, 48, and 72 h after the first injection; freeze/thaw stability was assessed by analysing three freshly prepared aliquots of each QCs concentration, and then again after one and two freeze/thaw cycles.

[3] = Stability of deproteinized QCs in autosampler at 4 °C; format: physicochemical; details: for Acc. %, T = 72 h in autosampler (4°C): % of nominal
Procedure: as §1

[4] = Long term stability in human plasma at -80°C; format: in vitro ADME; details: for Acc. %, stored at -80ºC over 2 months (plasma): % of nominal
[5] = Long term stability of working solutions in methanol at -20°C; format: physicochemical; details: for Acc. %, stored at -20ºC over 2 months (methanol): % of nominal
[6] = patients, cited from earlier work
[7] = reanalysis in second run, read-out: II quantif. plasma concentration (Cmin)
[8] = deproteinized QC high: nominal 200.00 PALBO / 8000.00 RIBO / 400.00 LETRO ng/mL
[9] = deproteinized QC low: nominal 0.50 PALBO / 20.00 RIBO / 1.00 LETRO ng/mL
[10] = deproteinized QC medium: nominal 20.00 PALBO / 800.00 RIBO / 40.00 LETRO ng/mL
[11] = QC high: nominal 200.00 PALBO / 8000.00 RIBO / 400.00 LETRO ng/mL
[12] = QC low: nominal 0.50 PALBO / 20.00 RIBO / 1.00 LETRO ng/mL
[13] = QC medium: nominal 20.00 PALBO / 800.00 RIBO / 40.00 LETRO ng/mL

CN(C)C(=O)c1cc2cnc(Nc3ccc(N4CCNCC4)cn3)nc2n1C1CCCC1 [RIBO, ribociclib]
concentration at 30 h ([1]; 30 h from last pills intake, read-out: I quantif. plasma concentration (Cmin)): 396 ng/mL | concentration at 30 h [1, 7]: 419 ng/mL | Mean ± SD measured concentration, T = 4h (RT) ([2]; plasma QC high: nominal 200.00 PALBO / 8000.00 RIBO / 400.00 LETRO ng/mL): 7218.92 ± 402.94 ng/mL | Mean ± SD measured concentration, T = 4h (RT) ([2]; plasma QC low: nominal 0.50 PALBO / 20.00 RIBO / 1.00 LETRO ng/mL): 18.86 ± 0.74 ng/mL | Mean ± SD measured concentration, T = 4h (RT) ([2]; plasma QC medium: nominal 20.00 PALBO / 800.00 RIBO / 40.00 LETRO ng/mL): 751.88 ± 27.56 ng/mL | Mean ± SD measured concentration, T = 72 h in autosampler (4°C) [3, 8]: 8274.93 ± 207.29 ng/mL | Acc. %, T = 72 h in autosampler (4°C) [3, 8]: 103.4% | Mean ± SD measured concentration, T = 72 h in autosampler (4°C) [3, 9]: 21.24 ± 1.45 ng/mL | Acc. %, T = 72 h in autosampler (4°C) [3, 9]: 106.2% | Mean ± SD measured concentration, T = 72 h in autosampler (4°C) [3, 10]: 815.31 ± 36.72 ng/mL | Acc. %, T = 72 h in autosampler (4°C) [3, 10]: 101.9% | Mean ± SD measured concentration, stored at -80ºC over 2 months (plasma) [4, 11]: 7699.21 ± 117.73 ng/mL | Acc. %, stored at -80ºC over 2 months (plasma) [4, 11]: 96.2% | Mean ± SD measured concentration, stored at -80ºC over 2 months (plasma) [4, 12]: 21.10 ± 1.05 ng/mL | Acc. %, stored at -80ºC over 2 months (plasma) [4, 12]: 105.5% | Mean ± SD measured concentration, stored at -80ºC over 2 months (plasma) [4, 13]: 789.37 ± 28.89 ng/mL | Acc. %, stored at -80ºC over 2 months (plasma) [4, 13]: 98.7% | Mean ± SD measured concentration, stored at -20ºC over 2 months (methanol) [5, 11]: 8522.63 ± 68.65 ng/mL | Acc. %, stored at -20ºC over 2 months (methanol) [5, 11]: 106.5% | Mean ± SD measured concentration, stored at -20ºC over 2 months (methanol) [5, 12]: 19.52 ± 0.30 ng/mL | Acc. %, stored at -20ºC over 2 months (methanol) [5, 12]: 97.6% | Mean ± SD measured concentration, stored at -20ºC over 2 months (methanol) [5, 13]: 885.44 ± 35.25 ng/mL | Acc. %, stored at -20ºC over 2 months (methanol) [5, 13]: 110.7% | in vivo RIBO plasma concentration (CV), Cmin, population mean ([6]; 20 (ref 19)): 711 ng/mL and 711 (72.9) ng/mL | in vivo RIBO plasma concentration (CV), upper end of range [6]: 3500 (65.8) ng/mL

CC(=O)c1c(C)c2cnc(Nc3ccc(N4CCNCC4)cn3)nc2n(C2CCCC2)c1=O [PALBO, Palbociclib]
concentration at 25 h ([1]; 25 h from last capsule intake, read-out: I quantif. plasma concentration (Cmin)): 77.5 ng/mL | concentration at 25 h [1, 7]: 82.4 ng/mL | concentration at 1 week ([1]; last PALBO intake 1 week before sampling, read-out: I quantif. plasma concentration (residual)): 1.6 ng/mL | concentration at 1 week ([1]; last intake 1 week before sampling, reanalysis in second run, read-out: II quantif. plasma concentration (residual)): 1.5 ng/mL | concentration at 15 h ([1]; LETRO 2.5 mg/day, last pill intake 15 h before sampling, read-out: I quantif. plasma concentration (Cmin)): 97.9 ng/mL | concentration at 15 h ([1]; LETRO 2.5 mg/day, reanalysis in second run, read-out: II quantif. plasma concentration (Cmin)): 96.2 ng/mL | I quantif. plasma concentration (Cmin) ([1]; patient 1, sample 1, PALBO 125 mg/day): 53.0 ng/mL | II quantif. plasma concentration (Cmin) ([1]; patient 1, sample 1, PALBO 125 mg/day, reanalysis in second run): 55.9 ng/mL | I quantif. plasma concentration (Cmin) ([1]; patient 2, sample 2, PALBO 125 mg/day): 76.9 ng/mL | II quantif. plasma concentration (Cmin) ([1]; patient 2, sample 2, PALBO 125 mg/day, reanalysis in second run): 84.2 ng/mL | I quantif. plasma concentration (Cmin) ([1]; patient 4, sample 5, PALBO 100 mg/day): 70.7 ng/mL | II quantif. plasma concentration (Cmin) ([1]; patient 4, sample 5, PALBO 100 mg/day, reanalysis in second run): 74.3 ng/mL | I quantif. plasma concentration (Cmin) ([1]; patient 5, sample 6, PALBO 125 mg/day): 39.5 ng/mL | II quantif. plasma concentration (Cmin) ([1]; patient 5, sample 6, PALBO 125 mg/day, reanalysis in second run): 43.0 ng/mL | I quantif. plasma concentration (Cmin) ([1]; patient 5, sample 7, PALBO 125 mg/day): 41.5 ng/mL | II quantif. plasma concentration (Cmin) ([1]; patient 5, sample 7, PALBO 125 mg/day, reanalysis in second run): 46.1 ng/mL | I quantif. plasma concentration (Cmin) ([1]; patient 6, sample 8, PALBO 125 mg/day, LETRO 2.5 mg/day): 69.7 ng/mL | II quantif. plasma concentration (Cmin) ([1]; patient 6, sample 8, PALBO 125 mg/day, LETRO 2.5 mg/day, reanalysis in second run): 74.0 ng/mL | Mean ± SD measured concentration, T = 72 h in autosampler (4°C) [3, 8]: 215.60 ± 8.28 ng/mL | Acc. %, T = 72 h in autosampler (4°C) [3, 8]: 107.8% | Mean ± SD measured concentration, T = 72 h in autosampler (4°C) [3, 9]: 0.54 ± 0.02 ng/mL | Acc. %, T = 72 h in autosampler (4°C) [3, 9]: 108.2% | Mean ± SD measured concentration, T = 72 h in autosampler (4°C) [3, 10]: 21.10 ± 1.23 ng/mL | Acc. %, T = 72 h in autosampler (4°C) [3, 10]: 105.5% | Mean ± SD measured concentration, stored at -20ºC over 2 months (methanol) [5, 11]: 219.18 ± 9.46 ng/mL | Acc. %, stored at -20ºC over 2 months (methanol) [5, 11]: 109.6% | Mean ± SD measured concentration, stored at -20ºC over 2 months (methanol) [5, 12]: 0.52 ± 0.02 ng/mL | Mean ± SD measured concentration, stored at -20ºC over 2 months (methanol) [5, 13]: 22.43 ± 0.63 ng/mL
